Results as given in patent publication US10588317B2, “Isoxazoline-substituted benzamides and analogues as insecticides” (priority 2015, dated 2020).

Key:
Format in all cases: in vivo
[1] = tested on: Diabrotica balteata; test: Diabrotica balteata (corn root worm), sprayed maize sprouts; conditions: 96 h, application rate 200 ppm, L2 larvae, 4 days after infestation, read-out: effect in at least one of the two categories (mortality or growth inhibition)
Outline: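 Maize sprouts on agar sprayed with aqueous dilutions of DMSO stocks, dried, then infested with L2 larvae (6–10 per well). Mortality and growth inhibition scored against untreated controls 4 days after infestation, at 200 ppm application rate.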

[2] = tested on: Thrips tabaci; test: Thrips tabaci (onion thrips): feeding/contact activity; conditions: 144 h, application rate 200 ppm, Thrips population of mixed ages, 6 days after infestation, read-out: mortality
Procedure: (§1) Sunflower leaf discs were placed on agar in 24-well microtiter plates and sprayed with aqueous test solutions prepared from 10'000 ppm DMSO stock solutions. After drying the leaf discs were infested with a Thrips population of mixed ages. The samples were assessed for mortality 6 days after infestation.

[3] = tested on: Tetranychus urticae; test: Tetranychus urticae (two-spotted spider mite): feeding/contact activity; conditions: 192 h, application rate 200 ppm, mixed population (mobile stages), 8 days after infestation, read-out: mortality
Procedure: as §1, with “Bean” for “Sunflower”, “discs” for “discs were placed”, “were” for “and”, “mite” for “Thrips”, “on mixed population (mobile stages) 8” for “6”

[4] = tested on: Spodoptera littoralis; test: Spodoptera littoralis (Egyptian cotton leaf worm), sprayed cotton leaf discs; conditions: foliar, 72 h, application rate 200 ppm, L1 larvae, 3 days after infestation, read-out: control (mortality, anti-feeding effect, growth inhibition)
Outline: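 Cotton leaf discs on agar sprayed with aqueous test solutions made from 10'000 ppm DMSO stock; after drying, infested with five L1 larvae. Mortality, anti-feeding and growth inhibition scored versus untreated samples 3 days after infestation; control counted when any category exceeds untreated.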

[5] = tested on: Myzus persicae; test: Myzus persicae (green peach aphid): feeding/contact activity; conditions: 144 h, application rate 200 ppm, aphid population of mixed ages, 6 days after infestation, read-out: mortality
Procedure: Sunflower leaf discs were placed onto agar in a 24-well microtiter plate and sprayed with aqueous test solutions prepared from 10'000 ppm DMSO stock solutions. After drying, the leaf discs were infested with an aphid population of mixed ages. The samples were assessed for mortality 6 days after infestation.

[6] = tested on: Plutella xylostella; test: Plutella xylostella (diamond back moth), artificial diet; conditions: 120 h, application rate 200 ppm, L2 larvae, 5 days after infestation, read-out: effect in at least one of the two categories (mortality or growth inhibition)
Outline: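 Artificial diet in 24-well plates treated with aqueous test solutions made from 10'000 ppm DMSO stocks, dried, then infested with L2 larvae (10 to 15 per well). Mortality and growth inhibition scored against untreated samples 5 days after infestation; activity cut-off at least 80% in either category at 200 ppm.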

[7] = tested on: Spodoptera littoralis; test: Spodoptera littoralis (Egyptian cotton leaf worm), uptake by lettuce roots from agar; conditions: 144 h, read-out: effect in at least one of the three categories (mortality, anti-feeding, or growth inhibition)
Outline: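 Compound from 10'000 ppm DMSO stocks was mixed into agar, and lettuce grew on it for 7 days to take it up via roots. Cut leaves were infested with Spodoptera eggs; mortality, anti-feedant effect and growth inhibition scored 6 days later versus untreated samples.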

[8] = tested on: Euschistus heros; test: Euschistus heros (neotropical brown stink bug), sprayed soybean leaves; conditions: 120 h, application rate 200 ppm, N2 nymphs, 5 days after infestation, read-out: effect in at least one of the two categories (mortality or growth inhibition)
Outline: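 Soybean leaves on agar sprayed with aqueous dilutions of DMSO stocks, dried, then infested with N2 nymphs. Mortality and growth inhibition scored against untreated samples 5 days after infestation; application rate 200 ppm.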

Cc1cc(C2=NO[C@@](c3cc(Cl)c(Cl)c(Cl)c3)(C(F)(F)F)C2)ccc1C(=O)N[C@H]1CON(S(N)(=O)=O)C1 [Compound A68, 2-methyl-N-[(4R)-2-sulfamoylisoxazolidin-4-yl]-4-[(5S)-5-(3,4,5-trichlorophenyl)-5-(trifluoromethyl)-4H-isoxazol-3-yl]benzamide]
≥ 80%: percent effect (mortality or growth inhibition) at 200 ppm [1] | mortality at 200 ppm [2] | mortality at 200 ppm [3] | mortality at 200 ppm [4] | mortality at 200 ppm [5] | percent effect (mortality or growth inhibition) at 200 ppm [6] | percent control (mortality, anti-feedant effect or growth inhibition) at 12.5 ppm [7] | percent effect (mortality or growth inhibition) at 200 ppm [8]

CNS(=O)(=O)N1CC(NC(=O)c2ccc(C3=NO[C@@](c4cc(Cl)c(Cl)c(Cl)c4)(C(F)(F)F)C3)cc2C)CO1 (stereo partly drawn) [Compound A69, 2-methyl-N-[2-(methylsulfamoyl)isoxazolidin-4-yl]-4-[(5S)-5-(3,4,5-trichlorophenyl)-5-(trifluoromethyl)-4H-isoxazol-3-yl]benzamide]
≥ 80%: percent effect (mortality or growth inhibition) at 200 ppm [1] | mortality at 200 ppm [2] | mortality at 200 ppm [3] | mortality at 200 ppm [4] | mortality at 200 ppm [5] | percent effect (mortality or growth inhibition) at 200 ppm [6] | percent control (mortality, anti-feedant effect or growth inhibition) at 12.5 ppm [7] | percent effect (mortality or growth inhibition) at 200 ppm [8]

CNS(=O)(=O)N1CC(NC(=O)c2ccc(C3=NO[C@@](c4cc(Cl)c(F)c(Cl)c4)(C(F)(F)F)C3)cc2C)CO1 (some centres unmarked) [Compound A70]
≥ 80%: percent effect (mortality or growth inhibition) at 200 ppm [1] | mortality at 200 ppm [2] | mortality at 200 ppm [3] | mortality at 200 ppm [4] | mortality at 200 ppm [5] | percent effect (mortality or growth inhibition) at 200 ppm [6] | percent control (mortality, anti-feedant effect or growth inhibition) at 12.5 ppm [7] | percent effect (mortality or growth inhibition) at 200 ppm [8]

CCN(C)S(=O)(=O)N1C[C@@H](NC(=O)c2ccc(C3=NO[C@@](c4cc(Cl)c(Cl)c(Cl)c4)(C(F)(F)F)C3)cc2C)CO1 [Compound A72, N-[(4R)-2-[ethyl(methyl)sulfamoyl]isoxazolidin-4-yl]-2-methyl-4-[(5S)-5-(3,4,5-trichlorophenyl)-5-(trifluoromethyl)-4H-isoxazol-3-yl]benzamide]
≥ 80%: percent effect (mortality or growth inhibition) at 200 ppm [1] | mortality at 200 ppm [2] | mortality at 200 ppm [3] | mortality at 200 ppm [4] | mortality at 200 ppm [5] | percent effect (mortality or growth inhibition) at 200 ppm [6] | percent control (mortality, anti-feedant effect or growth inhibition) at 12.5 ppm [7] | percent effect (mortality or growth inhibition) at 200 ppm [8]

CCN(C)S(=O)(=O)N1CC(NC(=O)c2ccc(C3=NO[C@@](c4cc(Cl)c(Cl)c(Cl)c4)(C(F)(F)F)C3)cc2C)CO1 (stereo partly drawn) [Compound A73, N-[2-[ethyl(methyl)sulfamoyl]isoxazolidin-4-yl]-2-methyl-4-[(5S)-5-(3,4,5-trichlorophenyl)-5-(trifluoromethyl)-4H-isoxazol-3-yl]benzamide]
≥ 80%: percent effect (mortality or growth inhibition) at 200 ppm [1] | mortality at 200 ppm [2] | mortality at 200 ppm [3] | mortality at 200 ppm [4] | mortality at 200 ppm [5] | percent effect (mortality or growth inhibition) at 200 ppm [6] | percent control (mortality, anti-feedant effect or growth inhibition) at 12.5 ppm [7] | percent effect (mortality or growth inhibition) at 200 ppm [8]

Cc1cc(C2=NO[C@@](c3cc(Cl)cc(C(F)(F)F)c3)(C(F)(F)F)C2)ccc1C(=O)N[C@H]1CON(S(C)(=O)=O)C1 [Compound A75]
≥ 80%: percent effect (mortality or growth inhibition) at 200 ppm [1] | mortality at 200 ppm [2] | mortality at 200 ppm [3] | mortality at 200 ppm [4] | mortality at 200 ppm [5] | percent effect (mortality or growth inhibition) at 200 ppm [6] | percent control (mortality, anti-feedant effect or growth inhibition) at 12.5 ppm [7] | percent effect (mortality or growth inhibition) at 200 ppm [8]

CCOC(=O)N(C)S(=O)(=O)N1CC(NC(=O)c2ccc(C3=NO[C@@](c4cc(Cl)c(F)c(Cl)c4)(C(F)(F)F)C3)cc2C)CO1 (some centres unmarked) [Compound A76]
≥ 80%: percent effect (mortality or growth inhibition) at 200 ppm [1] | mortality at 200 ppm [2] | mortality at 200 ppm [3] | mortality at 200 ppm [4] | mortality at 200 ppm [5] | percent effect (mortality or growth inhibition) at 200 ppm [6] | percent control (mortality, anti-feedant effect or growth inhibition) at 12.5 ppm [7] | percent effect (mortality or growth inhibition) at 200 ppm [8]

Cc1cc(C2=NO[C@@](c3cc(Cl)c(F)c(Cl)c3)(C(F)(F)F)C2)ccc1C(=O)NC1CON(S(=O)(=O)N(C)C(=O)c2cccnc2)C1 (some centres unmarked) [Compound A78]
≥ 80%: percent effect (mortality or growth inhibition) at 200 ppm [1] | mortality at 200 ppm [2] | mortality at 200 ppm [3] | mortality at 200 ppm [4] | mortality at 200 ppm [5] | percent effect (mortality or growth inhibition) at 200 ppm [6] | percent effect (mortality, anti-feeding or growth inhibition) at 12.5 ppm ([7]; test rate 12.5 ppm, eggs, 6 days after infestation) | percent effect (mortality or growth inhibition) at 200 ppm [8]

Cc1cc(C2=NO[C@@](c3cc(Cl)c(F)c(Cl)c3)(C(F)(F)F)C2)ccc1C(=O)NC1CON(S(=O)(=O)N(C)C#N)C1 (stereo partly drawn) [Compound A81, N-[2-[cyano(methyl)sulfamoyl]isoxazolidin-4-yl]-4-[(5S)-5-(3,5-dichloro-4-fluoro-phenyl)-5-(trifluoromethyl)-4H-isoxazol-3-yl]-2-methyl-benzamide]
≥ 80%: percent effect (mortality or growth inhibition) at 200 ppm [1] | mortality at 200 ppm [2] | mortality at 200 ppm [3] | mortality at 200 ppm [4] | mortality at 200 ppm [5] | percent effect (mortality or growth inhibition) at 200 ppm [6] | percent control (mortality, anti-feedant effect or growth inhibition) at 12.5 ppm [7] | percent effect (mortality or growth inhibition) at 200 ppm [8]

C=CCN(C)S(=O)(=O)N1CC(NC(=O)c2ccc(C3=NO[C@@](c4cc(Cl)c(Cl)c(Cl)c4)(C(F)(F)F)C3)cc2C)CO1 (stereo partly drawn) [Compound A82, N-[2-[allyl(methyl)sulfamoyl]isoxazolidin-4-yl]-2-methyl-4-[(5S)-5-(3,4,5-trichlorophenyl)-5-(trifluoromethyl)-4H-isoxazol-3-yl]benzamide]
≥ 80%: percent effect (mortality or growth inhibition) at 200 ppm [1] | mortality at 200 ppm [2] | mortality at 200 ppm [3] | mortality at 200 ppm [4] | mortality at 200 ppm [5] | percent effect (mortality or growth inhibition) at 200 ppm [6] | percent control (mortality, anti-feedant effect or growth inhibition) at 12.5 ppm [7] | percent effect (mortality or growth inhibition) at 200 ppm [8]

Cc1cc(C2=NO[C@@](c3cc(Cl)c(Cl)c(Cl)c3)(C(F)(F)F)C2)ccc1C(=O)NC1CON(S(=O)(=O)N(C)CC#N)C1 (stereo partly drawn) [Compound A87, N-[2-[cyanomethyl(methyl)sulfamoyl]isoxazolidin-4-yl]-2-methyl-4-[(5S)-5-(3,4,5-trichlorophenyl)-5-(trifluoromethyl)-4H-isoxazol-3-yl]benzamide]
≥ 80%: percent effect (mortality or growth inhibition) at 200 ppm [1] | mortality at 200 ppm [2] | mortality at 200 ppm [3] | mortality at 200 ppm [4] | mortality at 200 ppm [5] | percent effect (mortality or growth inhibition) at 200 ppm [6] | percent control (mortality, anti-feedant effect or growth inhibition) at 12.5 ppm [7] | percent effect (mortality or growth inhibition) at 200 ppm [8]

COCCN(C)S(=O)(=O)N1CC(NC(=O)c2ccc(C3=NO[C@@](c4cc(Cl)c(Cl)c(Cl)c4)(C(F)(F)F)C3)cc2C)CO1 (stereo partly drawn) [Compound A90, N-[2-[2-methoxyethyl(methyl)sulfamoyl]isoxazolidin-4-yl]-2-methyl-4-[(5S)-5-(3,4,5-trichlorophenyl)-5-(trifluoromethyl)-4H-isoxazol-3-yl]benzamide]
≥ 80%: percent effect (mortality or growth inhibition) at 200 ppm [1] | mortality at 200 ppm [2] | mortality at 200 ppm [3] | mortality at 200 ppm [4] | mortality at 200 ppm [5] | percent effect (mortality or growth inhibition) at 200 ppm [6] | percent control (mortality, anti-feedant effect or growth inhibition) at 12.5 ppm [7] | percent effect (mortality or growth inhibition) at 200 ppm [8]

Cc1cc(C2=NO[C@@](c3cc(Cl)cc(C(F)(F)F)c3)(C(F)(F)F)C2)ccc1C(=O)N[C@H]1CON(S(=O)(=O)N(C)C)C1 [Compound A91]
≥ 80%: percent effect (mortality or growth inhibition) at 200 ppm [1] | mortality at 200 ppm [2] | mortality at 200 ppm [3] | mortality at 200 ppm [4] | mortality at 200 ppm [5] | percent effect (mortality or growth inhibition) at 200 ppm [6] | percent control (mortality, anti-feedant effect or growth inhibition) at 12.5 ppm [7] | percent effect (mortality or growth inhibition) at 200 ppm [8]
